Data set [1] deals with T1, Polyamine deacetylase HDAC10 (Homo sapiens, UniProt Q969S8).
T1 sequence (Q969S8 whole entry): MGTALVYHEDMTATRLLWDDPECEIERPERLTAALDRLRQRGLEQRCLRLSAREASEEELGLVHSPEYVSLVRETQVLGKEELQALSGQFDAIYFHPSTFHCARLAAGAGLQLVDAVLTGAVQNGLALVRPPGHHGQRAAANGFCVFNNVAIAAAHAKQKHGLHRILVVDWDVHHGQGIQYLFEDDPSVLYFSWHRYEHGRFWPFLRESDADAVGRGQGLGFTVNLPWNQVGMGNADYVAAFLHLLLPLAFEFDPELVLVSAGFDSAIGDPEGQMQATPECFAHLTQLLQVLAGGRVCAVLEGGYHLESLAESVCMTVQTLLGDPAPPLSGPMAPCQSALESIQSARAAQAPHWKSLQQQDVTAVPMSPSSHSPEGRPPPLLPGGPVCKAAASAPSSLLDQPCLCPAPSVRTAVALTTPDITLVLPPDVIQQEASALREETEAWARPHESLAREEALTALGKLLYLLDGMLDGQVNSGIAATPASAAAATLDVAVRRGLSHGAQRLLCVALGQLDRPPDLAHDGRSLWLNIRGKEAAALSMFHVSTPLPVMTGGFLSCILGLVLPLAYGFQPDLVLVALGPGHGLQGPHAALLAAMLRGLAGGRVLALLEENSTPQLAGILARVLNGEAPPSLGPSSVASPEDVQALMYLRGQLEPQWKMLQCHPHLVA
The data set can be described thus: Inhibition of human recombinant HDAC10 incubated for 45 mins by fluorimetry analysis.

For data set [2], the system named is THP-1. In words: Cytotoxicity against human THP-1 cells assessed as reduction in cell viability by alamar blue staining based assay. To be noted: for pIC50: read-out: IC50; for IC50: read-out: pIC50 (converted). Format: functional. In general terms: The colour change of resazurin is a common sign of viable cells or microbes.
Data set [3] has as its target Histone deacetylase 3 (Homo sapiens, UniProt O15379). In words: Inhibition of human recombinant HDAC3 incubated for 10 mins by Spectrophotometric analysis.
The target of data set [4] is T2, Histone deacetylase 8 (Homo sapiens, UniProt Q9BY41).
T2 sequence (Q9BY41 whole entry): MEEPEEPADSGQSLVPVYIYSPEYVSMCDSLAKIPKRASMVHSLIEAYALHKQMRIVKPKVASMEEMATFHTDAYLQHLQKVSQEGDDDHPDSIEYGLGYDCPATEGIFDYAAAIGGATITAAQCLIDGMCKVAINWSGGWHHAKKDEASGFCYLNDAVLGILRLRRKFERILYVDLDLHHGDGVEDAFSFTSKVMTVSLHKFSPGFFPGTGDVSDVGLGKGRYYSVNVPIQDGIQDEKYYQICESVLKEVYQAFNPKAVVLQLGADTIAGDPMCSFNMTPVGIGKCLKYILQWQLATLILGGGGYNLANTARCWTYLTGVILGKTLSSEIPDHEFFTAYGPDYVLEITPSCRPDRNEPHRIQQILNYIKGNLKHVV
The data set can be described thus: Inhibition of human recombinant HDAC8 incubated for 60 mins by fluorimetry analysis.

Data set [5] has as its target T3, Protein deacetylase HDAC6 (Homo sapiens, UniProt Q9UBN7).
T3 sequence (Q9UBN7 whole entry): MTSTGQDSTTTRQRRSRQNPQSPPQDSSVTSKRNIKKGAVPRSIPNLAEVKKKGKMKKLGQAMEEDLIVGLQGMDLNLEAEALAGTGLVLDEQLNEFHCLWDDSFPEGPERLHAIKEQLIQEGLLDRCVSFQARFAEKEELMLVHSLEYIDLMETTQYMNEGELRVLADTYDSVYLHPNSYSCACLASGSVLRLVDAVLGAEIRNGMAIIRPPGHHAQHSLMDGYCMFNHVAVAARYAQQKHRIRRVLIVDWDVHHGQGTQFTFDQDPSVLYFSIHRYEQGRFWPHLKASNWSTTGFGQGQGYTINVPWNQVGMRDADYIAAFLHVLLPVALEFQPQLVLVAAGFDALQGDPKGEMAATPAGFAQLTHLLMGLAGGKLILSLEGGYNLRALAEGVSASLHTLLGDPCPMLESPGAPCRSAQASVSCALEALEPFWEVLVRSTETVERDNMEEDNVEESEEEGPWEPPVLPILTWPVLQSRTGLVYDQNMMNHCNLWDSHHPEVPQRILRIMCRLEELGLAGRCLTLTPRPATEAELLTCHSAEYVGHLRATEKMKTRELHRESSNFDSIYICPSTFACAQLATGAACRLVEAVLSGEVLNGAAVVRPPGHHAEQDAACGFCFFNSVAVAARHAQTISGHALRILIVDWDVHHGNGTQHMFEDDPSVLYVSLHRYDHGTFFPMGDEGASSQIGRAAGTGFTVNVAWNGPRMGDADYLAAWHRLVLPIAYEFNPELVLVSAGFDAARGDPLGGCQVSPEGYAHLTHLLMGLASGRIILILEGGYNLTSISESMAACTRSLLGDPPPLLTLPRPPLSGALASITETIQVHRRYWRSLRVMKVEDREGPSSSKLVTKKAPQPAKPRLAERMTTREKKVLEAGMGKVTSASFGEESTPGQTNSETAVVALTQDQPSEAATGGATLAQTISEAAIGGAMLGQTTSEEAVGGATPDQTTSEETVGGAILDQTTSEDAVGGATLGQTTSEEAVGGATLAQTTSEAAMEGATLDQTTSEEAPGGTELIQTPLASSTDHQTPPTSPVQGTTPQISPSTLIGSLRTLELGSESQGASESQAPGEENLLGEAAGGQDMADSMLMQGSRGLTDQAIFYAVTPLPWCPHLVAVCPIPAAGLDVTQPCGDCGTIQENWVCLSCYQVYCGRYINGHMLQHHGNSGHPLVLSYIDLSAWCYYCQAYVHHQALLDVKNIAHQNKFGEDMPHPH
In words: Stability of the compound assessed as full-length human HDAC6 mediated-drug degradation measured after 96 hrs by time-resolved mass spectrometry analysis. Format: ADME.

For data set [6], the target named is Histone deacetylase 9 (Homo sapiens, UniProt Q9UKV0). In words: Inhibition of human recombinant HDAC9 incubated for 30 mins by fluorimetry analysis.
Sequence of Histone deacetylase 9 (Q9UKV0 whole entry): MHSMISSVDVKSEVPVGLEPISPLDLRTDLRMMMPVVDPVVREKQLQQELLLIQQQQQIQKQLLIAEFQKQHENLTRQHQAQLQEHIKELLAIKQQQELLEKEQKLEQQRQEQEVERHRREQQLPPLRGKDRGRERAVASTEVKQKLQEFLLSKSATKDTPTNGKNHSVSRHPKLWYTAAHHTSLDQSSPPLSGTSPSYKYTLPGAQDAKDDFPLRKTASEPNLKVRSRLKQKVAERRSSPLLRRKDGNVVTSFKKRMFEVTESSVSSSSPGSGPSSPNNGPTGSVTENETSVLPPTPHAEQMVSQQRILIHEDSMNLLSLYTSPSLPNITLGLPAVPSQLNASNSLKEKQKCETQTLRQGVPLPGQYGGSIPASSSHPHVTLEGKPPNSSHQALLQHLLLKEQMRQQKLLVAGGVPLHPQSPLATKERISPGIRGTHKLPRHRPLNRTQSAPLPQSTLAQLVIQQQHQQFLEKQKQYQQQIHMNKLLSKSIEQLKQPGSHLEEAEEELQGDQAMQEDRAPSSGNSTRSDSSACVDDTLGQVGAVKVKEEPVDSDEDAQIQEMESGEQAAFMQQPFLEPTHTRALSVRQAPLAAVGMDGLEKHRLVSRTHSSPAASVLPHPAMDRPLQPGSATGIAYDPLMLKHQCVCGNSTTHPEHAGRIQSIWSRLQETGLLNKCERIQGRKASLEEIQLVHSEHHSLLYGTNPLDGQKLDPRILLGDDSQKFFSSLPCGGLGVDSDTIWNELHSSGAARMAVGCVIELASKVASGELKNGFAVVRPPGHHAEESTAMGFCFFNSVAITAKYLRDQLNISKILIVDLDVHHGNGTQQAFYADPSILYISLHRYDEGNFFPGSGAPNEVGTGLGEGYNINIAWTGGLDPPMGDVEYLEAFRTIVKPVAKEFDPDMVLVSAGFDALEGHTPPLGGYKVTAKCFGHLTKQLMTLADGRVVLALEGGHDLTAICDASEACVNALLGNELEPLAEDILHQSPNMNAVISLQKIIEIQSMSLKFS
Data set [7] in a line: Metabolic stability in human liver microsomes assessed as disappearance of parent compound. The format is ADME, Microsome. To be noted: read-out: CLH. In general terms: Microsomes from liver hold many membrane-bound enzymes, among them those of drug oxidation.
A short description of data set [8]: Metabolic stability in mouse hepatocytes assessed as intrinsic clearance at 1 uM measured per 10^6 cells incubated at 2 to 60 mins by LC-MS/MS analysis. Format: ADME, cell-based, Hepatocyte. To be noted: time 2-60 min, read-out: CLH.

Molecules are shown by their SMILES. pIC50: −log10 of the molar value.

Sequence of Histone deacetylase 3 (O15379 whole entry): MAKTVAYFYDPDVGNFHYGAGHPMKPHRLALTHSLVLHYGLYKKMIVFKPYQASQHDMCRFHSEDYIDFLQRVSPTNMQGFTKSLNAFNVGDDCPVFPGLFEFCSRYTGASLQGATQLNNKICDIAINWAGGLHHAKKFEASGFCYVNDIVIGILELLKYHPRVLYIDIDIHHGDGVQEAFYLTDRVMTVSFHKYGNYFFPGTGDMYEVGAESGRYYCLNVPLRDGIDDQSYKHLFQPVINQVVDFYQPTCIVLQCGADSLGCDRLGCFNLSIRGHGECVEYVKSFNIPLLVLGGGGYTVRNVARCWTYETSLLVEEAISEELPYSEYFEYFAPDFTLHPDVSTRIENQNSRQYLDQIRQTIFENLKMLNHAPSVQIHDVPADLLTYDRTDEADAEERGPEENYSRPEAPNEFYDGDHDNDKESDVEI

As for `CS(=O)(=O)NCC(Nc1ncc(-c2nnc(C(F)F)o2)cn1)c1ccc(OC(F)(F)F)cc1` (stereo not given), the pIC50 in data set [1] was < 4.00; in data set [2] it was 3.90; in data set [3], < 4.00; in data set [4] it was < 4.00; in data set [6], 4.72. The IC50 in data set [2] was 126 µM. Further, the Stability entry in data set [5] was “Unstable”. Further, in data set [7], the microsomal CLint is < 3 µL/min/mg.

Take `COc1ccccc1-c1nnn(Cc2ccc(-c3nnc(C(F)F)o3)cn2)n1`: the pIC50 in data set [1], in data set [3], in data set [4] and in data set [6] was < 4.00 throughout. In data set [7], the microsomal CLint is < 3 µL/min/mg.

For the compound `O=C(NO)c1cnc(NC2(c3ccccc3)CCC(F)(F)CC2)nc1`, the pIC50 in data set [1] is 4.74; in data set [2], 4.03; in data set [3], 4.06; in data set [4], 4.80; in data set [6], 4.72. For the same compound, the IC50 in data set [2] was 100 µM. The Stability entry in data set [5] is recorded as “Stable”. For the same compound, the hepatocyte CLint at 1 µM in data set [8] worked out at 130 µL/min/1e6 cells. Besides, the microsomal CLint in data set [7] is < 3 µL/min/mg.

As for `FC(F)c1nnc(-c2ccc(Cn3nnc(-c4ccccn4)n3)nc2)o1`, the negative logarithm of the IC50 (pIC50) in data set [1], in data set [3], in data set [4] and in data set [6] was < 4.00 in each case. Besides, the IC50 in data set [2] is > 251 µM. Further, in data set [5], the Stability result is listed as “Unstable”. Moreover, in data set [8], the hepatocyte CLint at 1 µM was < 1 µL/min/1e6 cells. Also, in data set [7], the microsomal CLint is < 3 µL/min/mg.

A word on the pIC50: it is −log10 of the IC50, conventionally taken in molar units.

For the origin of these results see ChEMBL document CHEMBL5370608, “Selective and Bioavailable HDAC6 2-(Difluoromethyl)-1,3,4-oxadiazole Substrate Inhibitors and Modeling of Their Bioactivation Mechanism” (J Med Chem, 2023).
